{"source": "patent US20090226898A1", "about": "“Mitochondrial markers of ischemia” (Inverness Medical Switzerland GMBH, priority 2005, published 2009)", "origin": "cited, not measured here", "key": {"[1]": {"biological_target": "T1, FMLP receptor (68-kDa protein) (Homo sapiens, UniProt P21462)", "T1 sequence (P21462 1-350)": "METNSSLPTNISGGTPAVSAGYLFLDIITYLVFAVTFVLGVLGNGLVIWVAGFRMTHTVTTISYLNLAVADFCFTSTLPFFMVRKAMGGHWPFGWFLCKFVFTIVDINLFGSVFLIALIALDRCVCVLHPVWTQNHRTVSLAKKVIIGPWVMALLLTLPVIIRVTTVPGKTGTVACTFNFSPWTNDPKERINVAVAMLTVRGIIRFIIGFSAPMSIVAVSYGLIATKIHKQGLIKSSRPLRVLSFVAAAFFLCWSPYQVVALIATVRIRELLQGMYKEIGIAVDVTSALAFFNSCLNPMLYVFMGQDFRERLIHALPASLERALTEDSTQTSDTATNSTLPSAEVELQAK", "settings": "binding to the 68-kDa protein"}, "[2]": {"test_system": "human monocytes and formyl peptide receptor-like 1 (FPRL1)-transfected human embryonic kidney 293 cells", "settings": "human monocytes and FPRL1-transfected HEK 293 cells"}, "[3]": {"test_system": "human monocytes and formyl peptide receptor-like 1 (FPRL1)-transfected human embryonic kidney 293 cells", "settings": "human monocytes and FPRL1-transfected HEK 293 cells", "remark": "listed apart in the source"}, "cardiac myocytes": {"test_system": "cardiac myocytes", "settings": "immediately before ischemia"}, "FPR-like 2 (FPRL2)": {"biological_target": "T2, FPR-like 2 (FPRL2) (Homo sapiens, UniProt P25089)", "T2 sequence (P25089 1-353)": "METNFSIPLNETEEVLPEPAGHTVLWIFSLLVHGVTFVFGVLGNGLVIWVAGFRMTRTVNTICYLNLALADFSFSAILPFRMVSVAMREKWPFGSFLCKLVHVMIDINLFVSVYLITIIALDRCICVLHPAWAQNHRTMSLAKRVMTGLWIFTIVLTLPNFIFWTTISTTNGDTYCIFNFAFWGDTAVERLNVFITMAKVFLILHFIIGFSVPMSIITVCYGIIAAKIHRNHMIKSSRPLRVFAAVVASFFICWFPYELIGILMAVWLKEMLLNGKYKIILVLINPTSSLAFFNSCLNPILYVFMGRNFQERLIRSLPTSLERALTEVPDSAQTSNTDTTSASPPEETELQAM"}}}
{"compound": "RKAMGGHWPFGWFLCKF", "values": [{"measurement": "inhibition of ligand binding", "setting": "[1]", "result": "strongest inhibitor of ligand binding"}]}
{"compound": "LL-37: neutrophil granule- and epithelial cell-derived cathelicidin, from hCAP18 (aa1-37) (LLGDFFRKSKEKIGKEFKRIVQRIKDFLRNLVPRTES; Antibacterial peptide LL-37; UniProt P49913 134-170, looked up)", "values": [{"measurement": "calcium mobilization", "setting": "[2]", "result": "can induce calcium mobilization"}, {"measurement": "chemotaxis", "setting": "[3]", "result": "chemotactic"}]}
{"compound": "C=C(C)[C@H]1Cc2c(ccc3c2O[C@@H]2COc4cc(OC)c(OC)cc4[C@@H]2C3=O)O1", "note": "[rotenone]", "values": [{"measurement": "damage to mitochondria", "setting": "cardiac myocytes", "result": "reduces damage to mitochondria"}, {"measurement": "production of ROS", "setting": "cardiac myocytes; cardiac myocytes", "result": "decreases the production of ROS"}]}
{"compound": "formyl-Met-Leu-Phe [fMLP]", "values": [{"measurement": "receptor activation", "setting": "FPR-like 2 (FPRL2)", "result": "only activated by high (micromolar) concentrations"}]}
